Experimental data from patent US20050175976A1, “Meiosis activating sterol augments implantation rate” (priority 1999, published 2005).
Marks after values point to notes of the source that are not given here.

Experiments:
[1] = test system: mouse cumulus enclosed oocytes; experiment: Resumption of meiosis (GVBD) in mouse cumulus enclosed oocytes exposed to Amphotericin B; assay type: cell-based
Method: Amphotericin B is a medical product used against fungal infections by inhibiting cholesterol biosynthesis. It has no structural similarities to MAS. Its effect on resumption of meiosis was tested on mouse cumulus enclosed oocytes, in vitro. Ovarian stimulation was performed on immature female mice and the cumulus enclosed oocytes (CEO) isolated as described in Example 3.
Cumulus enclosed oocytes were cultured separately in 4-well dishes (Nuncleon, Roskilde, Denmark), 0.4 ml medium in each well containing control medium or medium supplemented with Amphotericin B (Bristol-Myers Squibb) in a 100% humidified atmosphere of 5% CO2 with 95% air at 37° C.
The effect of Amphotericin in concentrations of 0.6 and 1.2 μg/ml was evaluated after 22 hours in culture.
In another series of experiments, i.e. priming of CEO, the culture period with Amphotericin, priming period, varied from 5 min. to 240 min. in test medium with 1.2 μg/ml Amphotericin. After the priming period, the CEO were transferred to control medium and the culture continued for a total of 22 hours.
By the end of the culture period, germinal […] breakdown (GVBD) was scored by examining the oocyte in an inverted microscope. The percentage of oocytes with GVBD per total number of oocytes (% GVBD) was calculated.

[2] = test system: sterol 14-reductase (Δ14R); details: AY 0.1 μM, cultured rat hepatocytes; cited from earlier work
[3] = test system: mouse cumulus enclosed oocytes; experiment: Induction of resumption of meiosis in mouse cumulus enclosed oocytes exposed to AY9944-A-7; assay type: cell-based
Method: Immature female C57BI/2J B6D2 mice (11-15 g) were stimulated with exogenous gonadotropins (7.5 IU per mouse; Gonadoplex, Leo, Ballerup, Denmark). Forty-eight hours after injection with gonadotropins, the mice were sacrificed and the ovaries removed. Cumulus enclosed oocytes (CEO) were recovered by puncturing individual follicles and collected in a culture medium (a-MEM, Gibco, BRL) supplemented with 3 mg/ml bovine serum albumin, 5 mg/ml human serum albumin, 2 mM L-glutamine, 100 IU/ml penicillin, 100 μg/ml streptomycin and 4 mM hypoxanthine (control medium).
Induction of resumption of meiosis in mouse cumulus enclosed oocytes exposed to an inhibitor of sterol Δ14-reductase (AY9944-A-7) during culture.
Oocytes from 10-15 mice were pooled and randomly divided into the different test groups. The tests were performed using 4-well dishes (Nunclon, Roskilde, Denmark) each well containing 20-50 oocytes in 400 μl culture medium. Each dish had one well serving as control and the three other wells as tests.
All test media were prepared using HX-medium. AY9944-A-7 (AY) was kindly provided by Wyeth-Ayerst, Princeton, N.J., USA. AY has no structural similarities to MAS. Stock solutions of AY9944 in water were stored at −20° C., and was added directly to the HX-medium immediately prior to oocyte culture. AY was used in concentrations from 0.2 to 25 μM.

[4] = test system: mouse cumulus enclosed oocytes; experiment: Resumption of meiosis (GVBD) of mouse oocytes cultured in vitro with FSH and/or EGF; assay type: cell-based; details: EGF 0.5 ng/ml, 22-24 h, HX-medium
Method: Immature female mice (B6D2-F1 strain C57B1/2J) were kept under controlled light and temperature conditions with free access to food and water. […] The percentage of oocytes with GVBD per total number of oocytes (% GVBD) was calculated.

With `C[C@@H]1[C@H](O)[C@@H](C)/C=C/C=C/C=C/C=C/C=C/C=C/C=C/[C@H](O[C@@H]2O[C@H](C)[C@@H](O)[C@H](N)[C@@H]2O)C[C@@H]2O[C@](O)(C[C@@H](O)C[C@@H](O)[C@H](O)CC[C@@H](O)C[C@@H](O)CC(=O)O[C@H]1C)C[C@H](O)[C@H]2C(=O)O` [Amfotericin, Amphotericin B] the “% GVBD” value ([1]; 0.6 μg/ml, 22 hours in culture, 94 oocytes) was 28%, the “No. of GVBD” value ([1]; 0.6 μg/ml, 22 hours in culture, of 94 oocytes) was 26 and the “% GVBD” value ([1]; 1.2 μg/ml priming 5 minutes, then control medium to 22 hours, 98 oocytes) was 21%. For the same compound, the “No. of GVBD” value ([1]; 1.2 μg/ml priming 5 minutes, then control medium to 22 hours, of 98 oocytes) was 21, the “% GVBD” value ([1]; 1.2 μg/ml priming 10 minutes, then control medium to 22 hours, 88 oocytes) was 29% and the “No. of GVBD” value ([1]; 1.2 μg/ml priming 10 minutes, then control medium to 22 hours, of 88 oocytes) was 26. The “% GVBD” value ([1]; 1.2 μg/ml priming 30 minutes, then control medium to 22 hours, 116 oocytes) was 36%, the “No. of GVBD” value ([1]; 1.2 μg/ml priming 30 minutes, then control medium to 22 hours, of 116 oocytes) was 42 and the “% GVBD” value ([1]; 1.2 μg/ml priming 120 minutes, then control medium to 22 hours, 50 oocytes) was 50%. The “No. of GVBD” value ([1]; 1.2 μg/ml priming 120 minutes, then control medium to 22 hours, of 50 oocytes) was 25, the “% GVBD” value ([1]; 1.2 μg/ml priming 240 minutes, then control medium to 22 hours, 49 oocytes) was 69% and the “No. of GVBD” value ([1]; 1.2 μg/ml priming 240 minutes, then control medium to 22 hours, of 49 oocytes) was 34. For the same compound, the “% GVBD” value ([1]; 1.2 μg/ml, 22 hours in culture, 121 oocytes) was 76% and the “No. of GVBD” value ([1]; 1.2 μg/ml, 22 hours in culture, of 121 oocytes) was 92.
For `Cl.Cl.Clc1ccccc1CNCC1CCC(CNCc2ccccc2Cl)CC1` (stereo not shown) [AY, AY9944-A-7], the “Mode of action on Δ14R” value [2] is given as “competitive inhibitor”, the “Oocyte maturation of CEO (FIG. 2)” value ([3]; AY 0.2 to 25 μM in HX-medium) is given as “stimulates oocyte maturation of CEO in a dose-dependent way” and the “GVBD compared to the controls (FIG. 2)” value ([3]; AY 5, 10 and 25 μM, p<0.05, p<0.001 and p<0.001) is given as “increase GVBD significantly”.
With EGF: epidermal growth factor the “% GVBD” value ([4]; 68 oocytes) was 31^c,d % and the “No. of GVBD” value ([4]; of 68 oocytes) was 21.
